Where a SMILES comes first, the peptide text is derived from it.

The target in this test is T1, Solute carrier family 15 member 1 (Homo sapiens, UniProt P46059).
T1 sequence (P46059 whole entry): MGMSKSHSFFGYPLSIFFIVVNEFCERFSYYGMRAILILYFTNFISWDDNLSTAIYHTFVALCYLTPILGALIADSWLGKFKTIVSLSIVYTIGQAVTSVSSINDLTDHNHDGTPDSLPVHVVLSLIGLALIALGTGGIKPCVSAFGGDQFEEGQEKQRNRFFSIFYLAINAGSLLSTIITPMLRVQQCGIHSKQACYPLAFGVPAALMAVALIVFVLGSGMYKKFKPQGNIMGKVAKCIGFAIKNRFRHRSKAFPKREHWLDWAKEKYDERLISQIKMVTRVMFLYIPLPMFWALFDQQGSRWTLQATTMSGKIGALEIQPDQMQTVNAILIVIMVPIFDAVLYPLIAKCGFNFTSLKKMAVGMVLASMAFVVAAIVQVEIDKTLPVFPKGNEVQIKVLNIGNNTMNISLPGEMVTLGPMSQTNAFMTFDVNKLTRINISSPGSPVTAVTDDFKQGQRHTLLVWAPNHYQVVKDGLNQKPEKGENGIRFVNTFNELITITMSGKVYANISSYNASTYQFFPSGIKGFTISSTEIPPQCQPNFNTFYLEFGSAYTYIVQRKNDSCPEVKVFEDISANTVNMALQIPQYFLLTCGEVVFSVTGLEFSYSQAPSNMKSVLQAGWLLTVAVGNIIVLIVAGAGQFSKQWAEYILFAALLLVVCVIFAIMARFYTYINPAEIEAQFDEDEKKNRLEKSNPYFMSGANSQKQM
The experiment in a line: TP_TRANSPORTER: inhibition of Gly-Sar uptake (Gly-Sar: 25000 uM) in PEPT1-expressing CHO cells. It is filed as functional, cell-based.
Consider `CC1(C)S[C@@H]2[C@H](NC(=O)[C@H](N)c3ccccc3)C(=O)N2[C@H]1C(=O)O` [AMPICILLIN], for which 10000 µM corresponded to half-maximal inhibition (IC50).

Turning to `C[C@H](N)C(=O)N[C@@H](C)C(=O)O` (H-Ala-Ala-OH), the IC50 is 63 µM.

On to `NCC(=O)NCC(=O)NCC(=O)O`, for which the IC50 worked out at 1400 µM.

The term IC50 denotes the midpoint of a concentration-inhibition curve. Higher therefore signals weaker potency.

The values above are taken from ChEMBL document CHEMBL2074121, “Human dipeptide transporter, hPEPT1, stably transfected into Chinese hamster ovary cells” (Pharm Res, 1996).
